What was measured:
MOF = test system: MOF; design: method as in ref 19, 26 (Supplementary References); settings: original report; 26 (Supplementary References); cited from earlier work
human La antigen = target: T1, human La antigen (Homo sapiens, UniProt P05455, T302N); test: ALARM NMR; type: binding; settings: 400 μM compound; for ALARM NMR, (-) DTT: 0 mM DTT; for ALARM NMR, (+) DTT: DTT present; for ALARM NMR interpretation: with and without DTT
T1 construct: amino acids 100–324 of the human La antigen (plus T302N mutation); 6xHis (N); 6xHis (C); host or cells: Escherichia coli Rosetta cells
T1 sequence (P05455 100-324 T302N): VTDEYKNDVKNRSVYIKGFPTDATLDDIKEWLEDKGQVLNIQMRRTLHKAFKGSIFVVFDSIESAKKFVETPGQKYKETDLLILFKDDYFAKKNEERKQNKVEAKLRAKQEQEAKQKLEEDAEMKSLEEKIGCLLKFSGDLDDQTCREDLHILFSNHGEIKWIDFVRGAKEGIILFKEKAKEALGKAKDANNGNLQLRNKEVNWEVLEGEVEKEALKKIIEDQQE
Source text: The gene encoding amino acids 100–324 of the human La antigen (plus T302N mutation) was cloned into pET28b + vector (Novagen) with both an N- and C-terminal 6xHis tag (addgene.org, plasmid ID 90209). The sequence identity of the ALARM NMR plasmid construct was verified by Sanger sequencing of the transgene region and next-generation sequencing of the whole plasmid.
Plasmid was transformed into Escherichia coli Rosetta cells (Novagen) and cultured in M9 minimal media. The La antigen was labeled by adding ^13C-labeled amino acid precursors ([3-^13C]-α-ketobutyrate and [3,3′-^13C]-α-ketoisovalerate sodium salts; Cambridge Isotope Laboratories; 250 mg L^−1 final concentrations) to culture medium 30 min before induction with IPTG (1 mM final concentration). Bacteria were collected after incubation at 25 °C for 8 h and washed with ice-cold phosphate-buffered saline (PBS). Washed cells were lysed by French press in ice-cold lysis buffer (50 mM Tris, pH 7.6, 300 mM NaCl, 10% glycerol (v/v), 5 mM β-mercaptoethanol (BME), 5 mM imidazole, 2 mM MgCl2, benzonase, and protease inhibitor cocktail), followed by an additional brief sonication step (3 × 15 s pulse sequence) on ice. This lysed solution was centrifuged (30,000×g for 30 min, two cycles) to remove cellular debris, then loaded onto a pre-washed Ni-NTA bead column (Qiagen) kept at 4 °C and washed with buffer (50 mM Tris, pH 7.6, 300 mM NaCl, 10% glycerol (v/v), 5 mM BME, 5 mM imidazole). The La antigen was eluted with an elution buffer (50 mM Tris, pH 7.6, 300 mM NaCl, 10% glycerol (v/v), 5 mM BME, imidazole gradient ranging from 5 mM to 0.5 M). […] Aliquots were flash-frozen in liquid N2 and stored at −80 °C until further use. Before use, aliquots of ~150 μM protein were incubated in the presence of 20 mM DTT at 37 °C for 1 h, then dialyzed (25 mM sodium phosphate buffer, pH 7.0 (no DTT)) in 16 h cycles at 4 °C with constant nitrogen bubbling and with gentle stirring, for three total buffer cycles.
For standard testing conditions, the [^1H-^13C]-HMQC spectra were acquired in 25 mM sodium phosphate buffer, pH 7.0, 10% D2O (v/v; CIL) ± 400 μM test compounds delivered from the aforementioned stock solutions, and ± 20 mM non-deuterated DTT. Final concentration of DMSO was 4.0% (v/v). Reaction solutions were mixed, then centrifuged for 5 min (1000×g) in non-binding 384-well microplates at RT, then incubated at 37 °C for 1 h and then 30 °C for 15 h before obtaining spectra. Samples were checked for evidence of gross precipitation. Data were recorded at 298 K on a Bruker UltraShield 700 MHz NMR spectrometer equipped with a Bruker 1.7 mm TCI Cryoprobe and Bruker SampleJet autosampler. Samples were tested at 50 μM protein concentrations using 16 scans, 2048 complex points in F2, and 80 points in F1 using standard protein [^1H-^13C]-HMQC and water suppression pulse sequences.
Data were analyzed in TopSpin™ 3.5 (Bruker). Reactions were normalized to equivalent DMSO controls. Non-reactive compounds were identified by the absence of chemical shifts or changes in peak intensities (^13C-methyl) ± 20 mM DTT.

PCAF = target: T2, PCAF (Homo sapiens, UniProt Q92831); settings: original report; 27 (Supplementary References); cited from earlier work
T2 construct: Reaction Biology Corporation (assays run by this contract lab)

MOZ [1] = settings: original report; ref 26 (Supplementary References); cited from earlier work
Absorbance spectra = type: physicochemical; settings: 25 mM sodium phosphate, pH 7.0
Description: Selected test compounds were assessed for absorption between 300 and 750 nm. Most compound absorption spectra were obtained at 100, 50, and 10 μM final compound concentrations in ALARM NMR buffer (25 mM sodium phosphate, pH 7.0). Final concentration of DMSO was constant at 2.0% (v/v). Compounds were allowed to incubate at RT in buffer for 10 min in UV-transparent polystyrene 384-well plates. Absorbance spectra were then obtained on a SpectraMax M3 or BMG Labtech CLARIOstar microplate reader at 25 °C. Significant absorbance was defined as molar absorptivity constants greater than 2000 M^−1 cm^−1 at wavelengths greater than 300 nm.

AmpC β-lactamase = target: T3, AmpC β-lactamase (Escherichia coli, UniProt P00811); test: biochemical; design: species or system E. coli; settings: 10 μM compound; ± 0.01% Triton X-100
T3 construct: Recombinant E. coli AmpC (amino acids 20–377); purchased MyBioSource.com
Description: Selected compounds were assessed for aggregation using a modified AmpC β-lactamase counter-screen[24],[32],[64]. Recombinant E. coli AmpC (amino acids 20–377) was obtained from MyBioSource.com. Testing was performed in ALARM NMR buffer (25 mM sodium phosphate, pH 7.0) in flat-bottom UV-transparent 96-well microplates in 150 μL reaction volumes. Compounds were tested in triplicate at 10 μM final concentrations in either the presence or absence of freshly-prepared 0.01% Triton X-100 (v/v). Final concentration of DMSO was 2.0% (v/v). Compounds were incubated with ~5 nM AmpC in 147 μL reaction buffer for 5 min at RT, followed by the addition of 3 μL of nitrocefin substrate (100 μM final concentration). Reaction solutions were gently mixed by pipetting up and down three times using a multichannel pipette. […] Percent activity was normalized to DMSO-only controls. Fluconazole and lidocaine were included as negative aggregation control compounds. Rottlerin was included as a positive aggregation control compound. Aggregators were defined as compounds with significant detergent-dependent changes in AmpC activity (t-test, adjusted P-value <0.05; mean differences greater than 30%). Activators were defined as compounds that increased AmpC enzymatic activity.

MOZ [2] = target: MOZ; design: method as in ref 26 (Supplementary References); settings: original report; ref 26 (Supplementary References); cited from earlier work
[3] = UPLC-MS gross compound stability in assay buffer; settings: 25 mM sodium phosphate, pH 7.0, 30 °C, no GSH or CoA
Description: Select compounds were incubated up to 24 h for additional stability analyses. Chromatograms and mass spectra were qualitatively analyzed for the formation of new peaks and/or loss of parent peaks.

p300/CBP = settings: original report; 27 (Supplementary References); cited from earlier work
[4] = design: method as in not given; settings: noted in discussion; ref not given; cited from earlier work

N#Cc1c2ccc(N)cc2nc2cc(N)ccc12 [Compound 22, CTx-1]
IC50 (MOF): > 100 µM
ALARM NMR, (-) DTT (human La antigen): Negative
ALARM NMR, (+) DTT (human La antigen): Negative
ALARM NMR interpretation (human La antigen): Inert as tested
IC50 (PCAF): > 100 µM
Ki (MOZ [1]): 2400 nM
Absorption max (nm) (Absorbance spectra): Nominal
Absorbance counter-screen (Absorbance spectra; 300-750 nm): Negative
AmpC aggregation counter-screen (AmpC β-lactamase): Detergent-insensitive
Kd (MOZ [2]): 380 nM
UPLC-MS buffer stability counter-screen [3]: Grossly stable

CC(=O)N[C@H](CCCCNC(=O)CSCCNC(=O)CCNC(=O)C(O)C(C)(C)COP(=O)(O)OP(=O)(O)OC[C@H]1O[C@@H](n2cnc3c(N)ncnc32)[C@H](O)[C@@H]1OP(=O)(O)O)C(N)=O (stereo partly shown) [Compound 23, Lys-CoA]
IC50 (p300/CBP): 0.5 µM
ALARM NMR, (-) DTT (human La antigen): Negative
ALARM NMR, (+) DTT (human La antigen): Negative
ALARM NMR readout (human La antigen; overall readout): negative
ALARM NMR interpretation (human La antigen): Inert as tested
IC50 (PCAF): 200 µM
cell permeability [4]: cell-impermeable
AmpC aggregation counter-screen (AmpC β-lactamase): Detergent-insensitive

— publication PMC5688144, “Assay interference and off-target liabilities of reported histone acetyltransferase inhibitors” (Nature Communications, 2017)
